# Assay results: patent US20160206543A1, “SYNERGISTIC COMPOSITIONS AND METHODS FOR MITIGATING SKIN IRRITATION AND ENHANCING SKIN BARRIER FUNCTION” (GOJO INDUSTRIES, INC., priority 2014, published 2016)
# How the values were obtained:
# Assay type in all cases: cell-based, human
# DSC3 = assay: Cell-cell junction, qRT-PCR for desmocollin (DSC3); conditions: keratinocytes treated overnight; KGM = 100
# Excerpt: (§1) Tight Junctions are the closely associated areas of two cells whose membranes join together forming a virtually impermeable barrier to fluid. A desmosome is a cell structure specialized for cell-to-cell adhesion. A type of junction complex, they are localized spot-like adhesions randomly arranged on the lateral sides of plasma membranes. Desmosomes are molecular complexes of cell adhesion proteins and linking proteins that attach the cell surface adhesion proteins to intracellular keratin cytoskeletal filaments.
# (§2) The cell adhesion proteins of the desmosome, desmoglein (DSG) and desmocollin (DSC), are members of the cadherin family of cell adhesion molecules. They are biomarker of skin tight junctions. In particular, DSG1 is a biomarker for cell binding, the higher the expression, the better skin cell-cell junction and the better skin barrier function will be. DSC3 is a protein in humans that is encoded by the DSC3 gene, the higher the expression, the better skin cell-cell junction and the better skin barrier function will be.
# (§3) In the present method, keratinocytes were treated with the sample compositions in a 6-well plate overnight. After washing with cold phosphate-buffered saline (PBS), total RNAs were prepared from each well. Real-Time Quantitative Reverse Transcription PCR (qRT-PCR) was performed to detect the target genes ([…]) expression level using a One-step TaqMan® RT-PCR kit (Life Technologies).
# (§4) Samples containing various amounts of acetyl hexapeptide-38 and/or acetyl hexapeptide-46 were tested for cell-cell junction, as described above. Solution of Vitamin D3 and keratinocyte growth medium (KGM) were used for comparison. The results are summarized in Tables 3-4 below, and graphically represented in FIGS. 3-4. It can be seen that compositions containing acetyl hexapeptide-38 and/or acetyl hexapeptide-46 enhanced cell-cell junction when compared to Vitamin D3 and KGM.
# DSG1 = assay: Cell-cell junction, qRT-PCR for desmoglein (DSG1); conditions: keratinocytes treated overnight; KGM = 100
# Excerpt: as §1, §2, §3, §4
# IL-8 = IL-8 ELISA (Part 1, Quantikine kit), surfactant-induced irritation; conditions: for IL-8 secreted: human dermal keratinocytes co-treated with surfactant mixture (sodium laureth sulfate + polyquaternium-10), Control B = 100%, Control A = 0%; for Reduction of IL-8 Secretion Compared to Control B: subtracting from 100% for Control B
# Excerpt: Interleukin 8 (IL-8) is a chemokine and proinflammatory cytokine produced by macrophages and other cell types such as epithelial cells. It is secreted from keratinocytes in skin in response to inflammatory stimuli. IL-8 is secreted and is an important mediator of the immune reaction in the innate immune system response. IL-8 overexpressed is a biomarker of skin irritation.
# For Control A, human dermal keratinocytes are left untreated. No irritation is expected, and therefore Control A provides a baseline. For Control B, IL-8 is induced in human dermal keratinocytes by applying a surfactant mixture that is a combination of sodium laureth sulfate and polyquaternium-10. For all other samples, the human dermal keratinocytes are co-treated with the surfactant mixture and a composition containing the ingredient of interest. Decreased Il-8 expression reflects the ingredient's anti-irritation activity.
# In order to carry out the test method, an assay kit was employed that was obtained from R&D Systems: Human CXCL8/IL-8 Quantikine ELISA Kit.
# The following steps were followed: 1. Bring all reagents and samples to room temperature before use. 2. Prepare all reagents, standard dilutions, and samples. 3. Remove excess microplate strips from the plate frame, return them to the foil pouch containing the desiccant pack, and reseal. 4. Add 100 μL of Assay Diluent to each well. 5. Add 50 μL of Standard, control, or sample to each well. Cover with a plate sealer, and incubate at room temperature for 2 hours. 6. Aspirate each well and wash, repeating the process 3 times for a total of 4 washes. 7. Add 100 μL of Conjugate to each well. Cover with a new plate sealer, and incubate at room temperature for 1 hour. 8. Aspirate and wash 4 times. 9. Add 200 μL Substrate Solution to each well. Incubate at room temperature for 30 minutes, making sure to protect the wells from the light. 10. Add 50 μL of Stop Solution to each well. The liquid was removed from the well and, using a colorimeter, absorbance was measured at 450 nanometers (nm) within 30 minutes. Wavelength correction was set to 540 nm or 570 nm.
# The samples were tested for IL-8 secretion as described in the test method above. That is, for Control A, human dermal keratinocytes were left untreated. For Control B, IL-8 a surfactant mixture that was a combination of sodium laureth sulfate and polyquaternium-10. For all other samples, the human dermal keratinocytes were co-treated with the surfactant mixture and a composition containing the ingredient of interest. Decreased 11-8 expression reflects the ingredient's anti-irritation activity. The results are summarized in Table 2 and shown graphically in FIG. 1.
# The amount of the reduction in IL-8 secretion for the test samples (subtracting from 100% for Control B) is summarized in Table 2 and shown graphically in FIG. 2. It can be seen that the combination of acetyl hexapeptide-46 and acetyl hexapeptide-38 produce an enhanced reduction in IL-8 secretion, particularly for the higher concentrations.
# APQ3 = assay: Skin water channel biomarker: APQ3 expression; conditions: FIG. 10
# Excerpt: FIG. 5 is a graphical representation of the effect of various compositions on the irritation response of cells treated with known irritants, as quantified by measuring IL-8 secretion, and on cell viability. FIG. 6 is a graphical representation of Involucrin Expression—Keratinocytes (KC) differentiation. FIG. 7 is a graphical representation of PPARδ expression—ceramides related biomarker. FIG. 8 is a graphical representation of ABCA12 expression—fatty acid related biomarker. FIG. 9 is a graphical representation of DSC1 expression—cell-cell junction biomarker. FIG. 10 is a graphical representation of APQ3 expression—skin water channel.
# An in vitro model was employed, using monolayer human dermal keratinocytes culture (KGM). Two controls were tested: the medium and inflammatory cytokines interleukin (IL-1b).
# Skin Barrier Biomarkers: ABCA12, Involucrin, PPARδ. Different concentrations of ingredients were used to treat the keratinocyte for 24 hours. Cells were collected and total RNA prepared from the treated cells. Real-time RT-PCT was used to detect different barrier function related biomarker's gene expression level. Comparative Benchmark: Vitamin D3 (cholecalciferol) in three different concentrations.
Compound,DSC3 % (DSC3),IL-8 secreted (IL-8),Reduction of IL-8 Secretion Compared to Control B (IL-8),other results
"C=C1CC[C@H](O)C/C1=C/C=C1\CCC[C@]2(C)[C@@H]([C@H](C)CCCC(C)C)CC[C@@H]12 [VitD3, cholecalciferol, reference compound]",109%,,,DSG1 % (DSG1): 65%
Acetyl hexapeptide-38 [Example 3A],160%,,,
Acetyl hexapeptide-38 [Example 3B],205%,,,DSG1 % (DSG1): 144%
Acetyl hexapeptide-38 [Example 3C],210%,,,DSG1 % (DSG1): 178%
Acetyl hexapeptide-46 [Example 3D],230%,,,
Acetyl hexapeptide-46 [Example 3E],377%,,,DSG1 % (DSG1): 162%
Acetyl hexapeptide-46 [Example 3F],265%,,,DSG1 % (DSG1): 199%
acetyl hexapeptide-38,,,,effect on IL-8 secretion compared to Control B (in words) (IL-8): reduce the IL-8 secretion
acetyl hexapeptide-38 [Example 1A],,69.60%,30.40%,
acetyl hexapeptide-38 [Example 1B],,71.70%,28.30%,
acetyl hexapeptide-38 [Example 1C],,84.90%,15.10%,
acetyl hexapeptide-38 [Example 1D],,95.80%,4.20%,
acetyl hexapeptide-38 [Example 1G],,57.20%,42.80%,
acetyl hexapeptide-46,,,,APQ3 expression in KC (in words) (APQ3): does not individually stimulate APQ3 expression; effect on IL-8 secretion compared to Control B (in words) (IL-8): reduce the IL-8 secretion
acetyl hexapeptide-46 [Example 2A],,27.10%,72.90%,
acetyl hexapeptide-46 [Example 2B],,50.90%,49.10%,
acetyl hexapeptide-46 [Example 2C],,65.60%,34.40%,
acetyl hexapeptide-46 [Example 2D],,78.20%,21.80%,
acetyl hexapeptide-46 [Example 2G],,−6.90%,106.90%,
